Test results published in ChEMBL document CHEMBL1201862, “PubChem BioAssay data set” (2004).
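Exposure lasted 48 hours, with cells grown in 96-well plates and compounds tested at five concentrations. GI50 is the concentration that inhibits growth by half.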 Activity calls are given as the source filed them. Rule as the data show it: active = GI50 up to about 1.1 µM and inactive = higher.

Legend:
Test in all cases: NCI tumour cell line growth inhibition, 48 h
DU-145 = system: DU-145
Hs-578T = system: Hs-578T
SF-539 = system: SF-539
MOLT-4 = system: MOLT-4
MDA-MB-435 = system: MDA-MB-435
UACC-62 = system: UACC-62
SR = system: SR
MDA-MB-231 = system: MDA-MB-231
SW-620 = system: SW-620
786-0 = system: 786-0
TK-10 = system: TK-10
Malme-3M = system: Malme-3M
SN12C = system: SN12C
UO-31 = system: UO-31
OVCAR-3 = system: OVCAR-3
OVCAR-4 = system: OVCAR-4
IGROV-1 = system: IGROV-1
SF-295 = system: SF-295
HCC 2998 = system: HCC 2998
PC-3 = system: PC-3
OVCAR-8 = system: OVCAR-8
SK-MEL-28 = system: SK-MEL-28
M14 = system: M14
RXF 393 = system: RXF 393
SNB-75 = system: SNB-75
COLO 205 = system: COLO 205
LOX IMVI = system: LOX IMVI
SNB-19 = system: SNB-19
KM12 = system: KM12
T47D = system: T47D
MCF7 = system: MCF7
UACC-257 = system: UACC-257
CAKI-1 = system: CAKI-1
EKVX = system: EKVX
NCI-H23 = system: NCI-H23
SK-MEL-5 = system: SK-MEL-5
U-251 = system: U-251
MDA-N = system: MDA-N
HCT-116 = system: HCT-116
HT-29 = system: HT-29
A549 = system: A549
NCI-H226 = system: NCI-H226
SK-OV-3 = system: SK-OV-3
OVCAR-5 = system: OVCAR-5
SK-MEL-2 = system: SK-MEL-2
NCI/ADR-RES = system: NCI/ADR-RES
SF-268 = system: SF-268
HCT-15 = system: HCT-15
HOP-62 = system: HOP-62
ACHN = system: ACHN
RPMI-8226 = system: RPMI-8226
NCI-H460 = system: NCI-H460
NCI-H522 = system: NCI-H522
CCRF-CEM = system: CCRF-CEM
A498 = system: A498
HL-60 = system: HL-60
K562 = system: K562
HOP-92 = system: HOP-92
BT-549 = system: BT-549

Compound: Nc1ncnc2c1ncn2C1C=CC(CP(=O)(O)O)C1 (stereo not drawn)
- GI50 (DU-145): > 100 µM (inactive)
- GI50 (Hs-578T): 11 µM (inactive)
- GI50 (SF-539): > 100 µM (inactive)
- GI50 (MOLT-4): > 100 µM (inactive)
- GI50 (MDA-MB-435): > 100 µM (inactive)
- GI50 (UACC-62): > 100 µM (inactive)
- GI50 (SR): > 100 µM (inactive)
- GI50 (MDA-MB-231): > 100 µM (inactive)
- GI50 (SW-620): > 100 µM (inactive)
- GI50 (786-0): > 100 µM (inactive)
- GI50 (TK-10): > 100 µM (inactive)
- GI50 (Malme-3M): > 100 µM (inactive)
- GI50 (SN12C): > 100 µM (inactive)
- GI50 (UO-31): > 100 µM (inactive)
- GI50 (OVCAR-3): > 100 µM (inactive)
- GI50 (OVCAR-4): > 100 µM (inactive)
- GI50 (IGROV-1): > 100 µM (inactive)
- GI50 (SF-295): > 100 µM (inactive)
- GI50 (HCC 2998): > 100 µM (inactive)
- GI50 (PC-3): > 100 µM (inactive)
- GI50 (OVCAR-8): > 100 µM (inactive)
- GI50 (SK-MEL-28): > 100 µM (inactive)
- GI50 (M14): > 100 µM (inactive)
- GI50 (RXF 393): > 100 µM (inactive)
- GI50 (SNB-75): > 100 µM (inactive)
- GI50 (COLO 205): > 100 µM (inactive)
- GI50 (LOX IMVI): > 100 µM (inactive)
- GI50 (SNB-19): > 100 µM (inactive)
- GI50 (KM12): > 100 µM (inactive)
- GI50 (T47D): > 100 µM (inactive)
- GI50 (MCF7): > 100 µM (inactive)
- GI50 (UACC-257): > 100 µM (inactive)
- GI50 (CAKI-1): > 100 µM (inactive)
- GI50 (EKVX): > 100 µM (inactive)
- GI50 (NCI-H23): > 100 µM (inactive)
- GI50 (SK-MEL-5): > 100 µM (inactive)
- GI50 (U-251): > 100 µM (inactive)
- GI50 (MDA-N): > 100 µM (inactive)
- GI50 (HCT-116): > 100 µM (inactive)
- GI50 (HT-29): > 100 µM (inactive)
- GI50 (A549): > 100 µM (inactive)
- GI50 (NCI-H226): > 100 µM (inactive)
- GI50 (SK-OV-3): > 100 µM (inactive)
- GI50 (OVCAR-5): > 100 µM (inactive)
- GI50 (SK-MEL-2): > 100 µM (inactive)
- GI50 (NCI/ADR-RES): > 100 µM (inactive)
- GI50 (SF-268): > 100 µM (inactive)
- GI50 (HCT-15): > 100 µM
- GI50 (HOP-62): > 100 µM (inactive)
- GI50 (ACHN): > 100 µM (inactive)
- GI50 (RPMI-8226): > 100 µM (inactive)
- GI50 (NCI-H460): > 100 µM (inactive)

Compound: [O-][S+](C(c1ccccc1)=P(c1ccccc1)(c1ccccc1)c1ccccc1)c1ccc(Cl)cc1 (stereo not drawn)
- GI50 (DU-145): 13.9 µM (inactive)
- GI50 (Hs-578T): 19.8 µM (inactive)
- GI50 (SF-539): 60 µM (inactive)
- GI50 (MOLT-4): 29.1 µM (inactive)
- GI50 (MDA-MB-435): 11.7 µM (inactive)
- GI50 (SR): 19.5 µM (inactive)
- GI50 (MDA-MB-231): 19.3 µM (inactive)
- GI50 (SW-620): 23.6 µM (inactive)
- GI50 (786-0): 30.8 µM (inactive)
- GI50 (TK-10): 31.9 µM (inactive)
- GI50 (UO-31): 46.1 µM (inactive)
- GI50 (OVCAR-3): 22.3 µM (inactive)
- GI50 (OVCAR-4): 17.1 µM (inactive)
- GI50 (IGROV-1): 21.8 µM (inactive)
- GI50 (SF-295): 33.7 µM (inactive)
- GI50 (HCC 2998): 28.4 µM (inactive)
- GI50 (PC-3): 23.2 µM (inactive)
- GI50 (OVCAR-8): 28.1 µM (inactive)
- GI50 (SK-MEL-28): 22 µM (inactive)
- GI50 (M14): 25.5 µM (inactive)
- GI50 (NCI-H522): 11.8 µM (inactive)
- GI50 (RXF 393): 21.3 µM (inactive)
- GI50 (SNB-75): 60.4 µM (inactive)
- GI50 (LOX IMVI): 20.6 µM (inactive)
- GI50 (KM12): 14.2 µM (inactive)
- GI50 (T47D): 7.83 µM (inactive)
- GI50 (MCF7): 17.9 µM (inactive)
- GI50 (UACC-257): 12.5 µM (inactive)
- GI50 (CAKI-1): 60.5 µM (inactive)
- GI50 (CCRF-CEM): 20.9 µM (inactive)
- GI50 (EKVX): 27.3 µM (inactive)
- GI50 (NCI-H23): 26.7 µM (inactive)
- GI50 (SK-MEL-5): 12.1 µM (inactive)
- GI50 (U-251): 21.2 µM (inactive)
- GI50 (A498): 11.1 µM (inactive)
- GI50 (HL-60): 11.5 µM (inactive)
- GI50 (MDA-N): 13.3 µM (inactive)
- GI50 (HCT-116): 20.7 µM (inactive)
- GI50 (HT-29): 21.3 µM (inactive)
- GI50 (K562): 14.2 µM (inactive)
- GI50 (NCI-H226): 55.7 µM (inactive)
- GI50 (SK-OV-3): 24.4 µM (inactive)
- GI50 (OVCAR-5): 41.9 µM (inactive)
- GI50 (SK-MEL-2): 20.8 µM (inactive)
- GI50 (NCI/ADR-RES): 66.7 µM (inactive)
- GI50 (SF-268): 20.4 µM (inactive)
- GI50 (HCT-15): 34.9 µM
- GI50 (HOP-92): 13.1 µM (inactive)
- GI50 (HOP-62): 25.6 µM (inactive)
- GI50 (ACHN): 26.4 µM (inactive)
- GI50 (RPMI-8226): 6.98 µM (inactive)
- GI50 (NCI-H460): 24.2 µM (inactive)

Compound: Nc1ccc(S(=O)(=O)Nc2ncccn2)cc1 [SULFADIAZINE, SILVER]
- GI50 (NCI-H522): 1.77 µM (inactive)
- GI50 (CCRF-CEM): 1.82 µM (inactive)
- GI50 (K562): 2.12 µM (inactive)

Compound: Nc1ncnc2c(C3OC(CO)C(O)C3O)nsc12 (stereo not drawn)
- GI50 (A498): < 0.0115 µM (active)

Compound: COC(=O)C1=C(OC(=O)/C(=C/c2c(F)cccc2F)c2ccccc2)C(C(=O)OC)[C@@]2(O)[C@@H](C(=O)OC)[C@H](C)C[C@@H]1[C@@H]2C(=O)OC (stereo partly drawn)
- GI50 (DU-145): > 100 µM (inactive)
- GI50 (SF-539): > 100 µM (inactive)
- GI50 (MOLT-4): > 100 µM (inactive)
- GI50 (MDA-MB-435): > 100 µM (inactive)
- GI50 (UACC-62): > 100 µM (inactive)
- GI50 (MDA-MB-231): > 100 µM (inactive)
- GI50 (SW-620): > 100 µM (inactive)
- GI50 (786-0): > 100 µM (inactive)
- GI50 (TK-10): > 100 µM (inactive)
- GI50 (Malme-3M): 68.5 µM (inactive)
- GI50 (SN12C): > 100 µM (inactive)
- GI50 (UO-31): 2.9 µM (inactive)
- GI50 (OVCAR-3): > 100 µM (inactive)
- GI50 (OVCAR-4): > 100 µM (inactive)
- GI50 (IGROV-1): 59.4 µM (inactive)
- GI50 (SF-295): > 100 µM (inactive)
- GI50 (PC-3): > 100 µM (inactive)
- GI50 (OVCAR-8): > 100 µM (inactive)
- GI50 (SK-MEL-28): > 100 µM (inactive)
- GI50 (M14): > 100 µM (inactive)
- GI50 (NCI-H522): 6.76 µM (inactive)
- GI50 (RXF 393): > 100 µM (inactive)
- GI50 (BT-549): > 100 µM (inactive)
- GI50 (SNB-75): > 100 µM (inactive)
- GI50 (COLO 205): > 100 µM (inactive)
- GI50 (LOX IMVI): > 100 µM (inactive)
- GI50 (SNB-19): > 100 µM (inactive)
- GI50 (KM12): > 100 µM (inactive)
- GI50 (T47D): > 100 µM (inactive)
- GI50 (UACC-257): > 100 µM (inactive)
- GI50 (CAKI-1): > 100 µM (inactive)
- GI50 (CCRF-CEM): > 100 µM (inactive)
- GI50 (EKVX): > 100 µM (inactive)
- GI50 (NCI-H23): > 100 µM (inactive)
- GI50 (U-251): > 100 µM (inactive)
- GI50 (HL-60): > 100 µM (inactive)
- GI50 (HCT-116): > 100 µM (inactive)
- GI50 (HT-29): > 100 µM (inactive)
- GI50 (A549): 86.3 µM (inactive)
- GI50 (K562): > 100 µM (inactive)
- GI50 (NCI-H226): > 100 µM (inactive)
- GI50 (SK-OV-3): > 100 µM (inactive)
- GI50 (OVCAR-5): > 100 µM (inactive)
- GI50 (SK-MEL-2): > 100 µM (inactive)
- GI50 (NCI/ADR-RES): > 100 µM (inactive)
- GI50 (SF-268): > 100 µM (inactive)
- GI50 (HCT-15): > 100 µM
- GI50 (HOP-62): > 100 µM (inactive)
- GI50 (ACHN): > 100 µM (inactive)
- GI50 (NCI-H460): > 100 µM (inactive)
